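Interpolation was linear, between the two tested concentrations surrounding the appropriate level; five concentrations were tested over 48 hours in 96-well plates. GI50 marks 50% less growth. TGI denotes the concentration required for complete inhibition of growth.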 Where only a bound is given, the exact number is not on record here.

Test systems include HOP-62 NSCLC; HOP-92 NSCLC; NCI-H226 lung; NCI-H23 lung; NCI/ADR-RES ovarian; OVCAR-8 ovarian; SF-295 CNS; SK-MEL-2 melanoma; UACC-257 melanoma; CAKI-1 renal.
What all share (test): NCI anticancer screen, dose series, 48 h

As for `CNC(=O)OCC1=C(COC(=O)NC)CN(c2ccccc2)C1`, the TGI with HOP-62 NSCLC, in the test on HOP-92 NSCLC, in the test with NCI-H226 lung, in the test on NCI-H23 lung, in the test on NCI/ADR-RES ovarian and with OVCAR-8 ovarian was more than 100 µM each time. In addition, the TGI in the test with SF-295 CNS, with SK-MEL-2 melanoma and with UACC-257 melanoma was more than 100 µM each time.

Turning to `CCNC(=O)Oc1ccc(/C(=C(\C)c2ccc(Cl)cc2)c2ccc(OCCN3CCCCC3)cc2)cc1`, the GI50 in the test on HOP-62 NSCLC was 4.12 µM; in the test with HOP-92 NSCLC, 2.7 µM; in the test on NCI-H226 lung it was 14.4 µM; in the test with NCI-H23 lung it was 5.1 µM; in the test with NCI/ADR-RES ovarian it was 5.59 µM; with OVCAR-8 ovarian, 9.31 µM. Moreover, the GI50 is 1.95 µM in the test with SF-295 CNS, 5.49 µM in the test with SK-MEL-2 melanoma and 2.38 µM with UACC-257 melanoma. The TGI is 15.4 µM in the test on HOP-62 NSCLC; 9.25 µM in the test with HOP-92 NSCLC; 36.7 µM with NCI-H226 lung; 19.7 µM with NCI-H23 lung; 22.7 µM with NCI/ADR-RES ovarian; 26 µM in the test with OVCAR-8 ovarian. Also, the results for the TGI in the test on SF-295 CNS, in the test on SK-MEL-2 melanoma and in the test on UACC-257 melanoma were 4.36 µM, 19.2 µM and 5.12 µM, respectively.

As for `COc1ncnc2c(-c3ccco3)cn(COCc3ccccc3)c12`, the GI50 in the test on CAKI-1 renal, in the test on HOP-62 NSCLC, in the test on NCI-H226 lung, with NCI-H23 lung, in the test with NCI/ADR-RES ovarian and in the test with OVCAR-8 ovarian was more than 50 µM each time. Moreover, the GI50 in the test on SF-295 CNS was more than 50 µM; in the test with SK-MEL-2 melanoma, 48.8 µM; with UACC-257 melanoma, more than 50 µM. For the same molecule, the TGI in the test on CAKI-1 renal, in the test with HOP-62 NSCLC, with NCI-H226 lung, with NCI-H23 lung, with NCI/ADR-RES ovarian and with OVCAR-8 ovarian was more than 50 µM in each case. For the same molecule, the TGI in the test on SF-295 CNS, in the test on SK-MEL-2 melanoma and in the test on UACC-257 melanoma was more than 50 µM each time.

Regarding `CCCCCCN1C(=O)CN=C1Nc1ccc2cc3ccc(NC4=NCC(=O)N4CCCCCC)cc3nc2c1`, the GI50 in the test on HOP-92 NSCLC is 1.63 µM; in the test on NCI-H226 lung it was 2.48 µM; with NCI-H23 lung, 1.96 µM; in the test on NCI/ADR-RES ovarian, 3.32 µM; in the test on SF-295 CNS, 1.82 µM; with SK-MEL-2 melanoma it was 2.79 µM. The GI50 with UACC-257 melanoma was 3.34 µM. Also, the TGI with HOP-92 NSCLC worked out at 3.78 µM; with NCI-H226 lung it was 7.25 µM; with NCI-H23 lung, 5.23 µM; with NCI/ADR-RES ovarian, 15 µM; in the test on SF-295 CNS, 3.82 µM; in the test with SK-MEL-2 melanoma, 8.45 µM. Further, the TGI in the test with UACC-257 melanoma stood at 9.74 µM.

Consider `CCOc1cccnc1/C=N/NC(N)=S`, for which the GI50 in the test with CAKI-1 renal is 3.51 µM; in the test with HOP-62 NSCLC it was 3.71 µM; with NCI-H226 lung it was 3.6 µM; in the test with NCI-H23 lung, 5.05 µM; in the test on NCI/ADR-RES ovarian, 3.99 µM; in the test with OVCAR-8 ovarian it was 3.48 µM. Moreover, the GI50 in the test with SF-295 CNS was 3.92 µM; in the test on SK-MEL-2 melanoma, 9.93 µM; in the test with UACC-257 melanoma, 3.99 µM. Besides, the TGI is more than 100 µM in the test with CAKI-1 renal; 48.5 µM in the test on HOP-62 NSCLC; 83 µM in the test on NCI-H226 lung; more than 100 µM in the test with NCI-H23 lung; more than 100 µM in the test with NCI/ADR-RES ovarian; more than 100 µM in the test on OVCAR-8 ovarian. For the same molecule, the TGI in the test on SF-295 CNS is more than 100 µM; in the test on SK-MEL-2 melanoma it was more than 100 µM; in the test with UACC-257 melanoma it was 39.1 µM.

For the molecule `COc1cc(C(=O)N/N=C/c2cccc([N+](=O)[O-])c2)cc(OC)c1OC`, the GI50 with CAKI-1 renal was 2.53 µM; in the test on HOP-62 NSCLC, 18.4 µM; in the test with NCI-H226 lung, 18 µM; in the test with NCI-H23 lung, 5.96 µM; with NCI/ADR-RES ovarian it was 3.55 µM; with OVCAR-8 ovarian, 23.6 µM. In addition, the GI50 with SF-295 CNS was 2.75 µM; with SK-MEL-2 melanoma, 4.16 µM; in the test on UACC-257 melanoma it was 5.11 µM. For the same molecule, the TGI in the test with CAKI-1 renal was 11.9 µM; in the test on HOP-62 NSCLC, more than 100 µM; in the test on NCI-H226 lung it was more than 100 µM; with NCI-H23 lung, more than 100 µM; in the test with NCI/ADR-RES ovarian, 59.2 µM; in the test on OVCAR-8 ovarian, more than 100 µM. The TGI in the test with SF-295 CNS is 29.2 µM; with SK-MEL-2 melanoma it was more than 100 µM; in the test on UACC-257 melanoma it was more than 100 µM.

Consider `CCOC(=O)C1=C(c2ccccc2)N(Cc2ccccc2)C2(O)C=CC(=O)C3C(=O)N(c4ccccc4)C(=O)C132` (centres undefined), for which the GI50 in the test with CAKI-1 renal is 3.08 µM; with HOP-62 NSCLC it was 2.67 µM; in the test with HOP-92 NSCLC it was 2.03 µM; in the test with NCI-H226 lung, 2.25 µM; in the test with NCI-H23 lung, 2.12 µM; in the test with NCI/ADR-RES ovarian, 2.98 µM. Besides, the GI50 is 3.09 µM in the test with OVCAR-8 ovarian, 2.9 µM with SF-295 CNS and 2.82 µM in the test with UACC-257 melanoma. The TGI worked out at 9.71 µM in the test on CAKI-1 renal; 6.56 µM in the test with HOP-62 NSCLC; 5.54 µM in the test on HOP-92 NSCLC; 4.87 µM with NCI-H226 lung; 5.59 µM with NCI-H23 lung; 17 µM with NCI/ADR-RES ovarian. Besides, the TGI in the test on OVCAR-8 ovarian was 17.5 µM; in the test with SF-295 CNS, 11.5 µM; in the test on UACC-257 melanoma it was 8.06 µM.

On to `O=C(CC(C(=O)O)N1CCOCC1)c1ccccc1` (centres undefined), for which the TGI in the test with HOP-62 NSCLC was 86.9 µM; with HOP-92 NSCLC, 38 µM; in the test on NCI-H226 lung it was more than 100 µM; in the test with NCI-H23 lung, 40.6 µM; in the test with NCI/ADR-RES ovarian it was more than 100 µM; with OVCAR-8 ovarian, 94.8 µM. Also, the TGI with SF-295 CNS was more than 100 µM; in the test with SK-MEL-2 melanoma, 34.9 µM; in the test on UACC-257 melanoma, 27.2 µM.

`Cc1cnc2[nH]c(-c3ccccc3)cc(=O)c2c1`: the TGI with CAKI-1 renal was more than 100 µM; in the test on HOP-62 NSCLC it was more than 100 µM; with HOP-92 NSCLC it was more than 42.2 µM; with NCI-H226 lung it was 9.69 µM; in the test with NCI-H23 lung, more than 13.5 µM; in the test with NCI/ADR-RES ovarian, 0.0447 µM. The TGI with OVCAR-8 ovarian is 0.629 µM; in the test with SK-MEL-2 melanoma, more than 35.7 µM.

Consider `Cc1nn(C(=O)c2ccccc2O)c2c1C(c1ccc(O)cc1)SC(N)=N2` (centres undefined), for which the TGI with CAKI-1 renal is more than 10 µM; with HOP-62 NSCLC, more than 10 µM; in the test on NCI-H226 lung it was more than 6.22 µM; with NCI-H23 lung it was more than 10 µM; in the test on NCI/ADR-RES ovarian it was more than 10 µM; in the test on OVCAR-8 ovarian, more than 10 µM. Moreover, the TGI in the test on SF-295 CNS, in the test on SK-MEL-2 melanoma and in the test on UACC-257 melanoma was more than 10 µM in each case.

For the origin of these results see PubChem BioAssay (NCI).
